The record followed here is patent publication US20240336617A1, “Substituted Bimane Compounds and Methods of Use Thereof” (THE TRUSTEES OF THE UNIVERSITY OF PENNSYLVANIA, priority 2023, published 2024).

Molecules are shown by their SMILES. Bounds are passed on as bounds.

Data set [1] can be described thus: Viscosity measurements (glycerol mixtures). In kind it is physicochemical. The protocol: As a representative example, the viscosity of 7k (25 μM, 10 mM stock in DMSO) in glycerol/methanol mixtures were measured, varying the glycerol percentage 0-99%.
Viscosity measurements. As a representative example, we have measured the viscosity of 5k (25 μM, 10 mM stock in DMSO) in glycerol/ethylene glycol (G/EG) mixtures, varying the glycerol percentage 0-90%. Then, the emission spectra were recorded using a PTI QuantaMaster™ 40 fluorescence spectrometer by excitation with 385 nm wavelength.

For data set [2], the target named is T1, αS fibrils in HEK cell lysate (Homo sapiens, UniProt P37840).
T1 construct: intein-His6 (C, cleaved yes); made in house; host or cells: Escherichia coli BL21
Description: Selectivity of probes binding with αS fibrils in HEK cell lysate. As to conditions: 10 mg/mL total protein; probe 1 μM. The protocol: HEK 293T cells were grown on 150 mm dishes in sterile-filtered Dulbecco's modified Eagle's medium (Gibco, Thermo Fisher) supplemented with 10% fetal bovine serum (FBS), 1% penicillin/streptomycin (Mediatech, 10 mg/ml each). Cells were then washed with PBS and harvested in 5 mL PBS by scraping. Cells were pelleted by centrifugation at 1000 rpm for 5 min, and the supernatant was removed. The resulting cell pellet was re-suspended in 300-500 μL PBS buffer with 0.1% Triton X-100 (Bio-Rad) and 1×HALT protease inhibitor cocktail without EDTA (Thermo Fisher), then lysed by sonication for two 30 s cycles (cycle 1: 2 s on 2 s off, amp 50; cycle 2: 2 s on 2 s off, amp 55) using a QSonica Q700 sonicator fitted with a microtip. […]
Probes in PBS buffer (1 μM, the stock solution prepared as 10 mM in DMSO) were incubated with different αS fibril concentrations (0, 5, 10, 25 and 50 μM) in the presence of 10 mg/mL HEK cell lysate in Greiner 96 well flat black ½ area plates at 37° C. with shaking at 500 rpm for 15 min in an IKA MS3 control orbital shaker. After 15 min incubation, fluorescence intensity measurements were obtained with a Tecan Spark plate reader (Mannedorf, Switzerland) by excitation with λex/λem=424/570 nm for 7k, λex/λem=463/580 nm for 7l, λex/λem=484/620 nm for 7m, using the following parameters: excitation and emission bandwidth 5 nm, delay time 0 μs, integration time 40 μs. […]

The target in a further data set is T2, αS monomer (Homo sapiens, UniProt P37840).
T2 construct: intein-His6 (C, cleaved yes); made in house; host or cells: Escherichia coli BL21
Kind of data set: Fluorescence with αS monomer (with and without TMAO). Type of data set: binding. As to conditions: for λmax (λem): 10 μM probe, αS monomer 50 μM, excitation 418 nm; for fluorescence turn on with αS monomer: varied probe or protein concentration. Here is the method:
A 1 mM stock solution of 5k in DMSO and a 6.5 M stock solution of trimethylamine N-oxide (TMAO) in Tris buffer at pH 7.4 were prepared. From these stocks, the fluorescence measurements of probe 5k (10 μM) were carried out with and without αS monomer (50 μM) at different concentrations of TMAO (2 M, 4 M and 6 M) diluted with the Tris buffer. The solutions were mixed and then the spectra were measured using a Photon Technology International (PTI) QuantaMaste 40 fluorescence spectrometer with excitation at 418 nm.

For the molecule `Cc1c(C)n2c(/C=C/c3ccc(N(C)C)cc3)c(C)c(=O)n2c1=O` [Compound 7l, (E)-3-(4-(dimethylamino)styryl)-2,5,6-trimethyl-1H,7H-pyrazolo[1,2-a]pyrazole-1,7-dione], the “increase in fluorescence intensity with increased % glycerol” value in data set [1] (ethylene glycol/glycerol mixtures) is 3.7 fold. For the same molecule, the “detection of PFFs in cytosolic HEK cell lysate” value in data set [2] is “higher fluorescence turn on”. The “λmax (λem)” value on αS monomer (2 M TMAO) is listed as 567 nm; at αS monomer (4 M TMAO), 566 nm; on αS monomer (6 M TMAO), 560 nm. The “fluorescence turn on with αS monomer” value on αS monomer is “occurs only with αS fibrils, not monomers”.
Consider `Cc1c(C)n2c(/C=C/c3ccc(N4CCOCC4)cc3)c(C)c(=O)n2c1=O` [Compound 7k, (E)-2,3,6-trimethyl-5-(4-morpholinostyryl)-1H,7H-pyrazolo[1,2-a]pyrazole-1,7-dione], for which, in data set [1] (glycerol/MeOH mixtures), the “increase in fluorescence intensity with % glycerol” value was over 6 fold and the “red-shift with % glycerol” value is given as 12 nm. Also, in data set [2], the “detection of PFFs in cytosolic HEK cell lysate” value was “higher fluorescence turn on”. Moreover, the “fluorescence turn on with αS monomer” value at αS monomer is listed as “no significant fluorescence turn on signal”.
